Columns and labels:
[1] = target: T1, CK1α (Homo sapiens, UniProt P48729+Q96SW2); experiment: Western blot, degradation of substrate protein in hPBMCs; type: cell-based
T1 construct: effects of the compounds of the present disclosure on the expression of target proteins in cells; endogenous in cells; host or cells: human PBMCs (Milecell Biotechnologies)

[2] = target: T2, IKZF1 (Homo sapiens, UniProt Q13422+Q96SW2); experiment: as above; type: cell-based
T2 construct: effects of the compounds of the present disclosure on the expression of target proteins in cells; endogenous in cells; host or cells: human PBMCs (Milecell Biotechnologies)

[3] = target: T3, IKZF2 (Homo sapiens, UniProt Q96SW2+Q9UKS7); experiment: as above; type: cell-based
T3 construct: effects of the compounds of the present disclosure on the expression of target proteins in cells; endogenous in cells; host or cells: human PBMCs (Milecell Biotechnologies)

[4] = target: T4, IKZF3 (Homo sapiens, UniProt Q96SW2+Q9UKT9); experiment: as above; type: cell-based
T4 construct: effects of the compounds of the present disclosure on the expression of target proteins in cells; endogenous in cells; host or cells: human PBMCs (Milecell Biotechnologies)

[5] = target: T5, WEE1 (Homo sapiens, UniProt P30291+Q96SW2); experiment: as above; type: cell-based
T5 construct: effects of the compounds of the present disclosure on the expression of target proteins in cells; endogenous in cells; host or cells: human PBMCs (Milecell Biotechnologies)

[6] = test system: GSPT1; experiment: as above; type: cell-based, Human
[7] = target: T6, human Cereblon WT GST-tagged protein (Homo sapiens, UniProt Q96SW2); experiment: CRBN-binding affinity, HTRF (CEREBLON BINDING kit); details: for inhibition at 0.5 µM: read-out: Inhibition Rate at 0.5 µM (%); for inhibition at 2 µM: read-out: Inhibition Rate at 2 µM (%)
T6 construct: purchased CISBIO 64BDCRBNPEH

[8] = Western blot, 24 hours of compound treatment, compounds tested at 50 nM and 500 nM (concentration for the table not stated)
[9] = 24 hours treatment, compounds at 50 nM and 500 nM (concentration behind the class not stated)

T5 sequence (P30291 whole entry): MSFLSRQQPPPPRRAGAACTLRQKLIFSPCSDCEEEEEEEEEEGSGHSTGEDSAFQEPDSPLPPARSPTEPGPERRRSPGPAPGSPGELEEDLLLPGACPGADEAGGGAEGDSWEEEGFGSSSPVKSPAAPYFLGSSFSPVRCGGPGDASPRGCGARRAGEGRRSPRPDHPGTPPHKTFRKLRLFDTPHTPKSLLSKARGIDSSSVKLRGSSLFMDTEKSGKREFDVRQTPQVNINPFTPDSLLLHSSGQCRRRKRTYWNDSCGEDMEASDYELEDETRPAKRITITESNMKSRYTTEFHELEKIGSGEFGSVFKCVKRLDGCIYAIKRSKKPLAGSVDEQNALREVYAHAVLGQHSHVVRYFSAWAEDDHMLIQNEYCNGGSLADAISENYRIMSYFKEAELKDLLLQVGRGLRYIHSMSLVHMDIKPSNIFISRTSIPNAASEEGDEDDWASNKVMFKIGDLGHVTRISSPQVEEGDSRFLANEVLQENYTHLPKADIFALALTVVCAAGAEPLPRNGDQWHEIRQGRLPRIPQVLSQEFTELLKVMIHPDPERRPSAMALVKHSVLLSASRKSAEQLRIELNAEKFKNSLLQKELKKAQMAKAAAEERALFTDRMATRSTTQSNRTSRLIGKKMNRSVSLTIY
T5 sequence (Q96SW2 whole entry): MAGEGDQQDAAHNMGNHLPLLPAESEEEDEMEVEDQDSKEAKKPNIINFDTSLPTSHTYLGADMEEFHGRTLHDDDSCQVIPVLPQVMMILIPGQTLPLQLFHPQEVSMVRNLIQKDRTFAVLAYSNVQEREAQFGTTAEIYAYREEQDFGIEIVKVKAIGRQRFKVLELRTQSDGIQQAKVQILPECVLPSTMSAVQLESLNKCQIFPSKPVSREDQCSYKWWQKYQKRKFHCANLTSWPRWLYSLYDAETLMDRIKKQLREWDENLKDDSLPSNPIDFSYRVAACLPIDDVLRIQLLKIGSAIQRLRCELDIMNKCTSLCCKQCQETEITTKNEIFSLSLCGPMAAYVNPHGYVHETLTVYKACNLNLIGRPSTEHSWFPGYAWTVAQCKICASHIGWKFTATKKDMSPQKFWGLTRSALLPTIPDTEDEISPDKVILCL
T5 sequence (Q16531 whole entry partner): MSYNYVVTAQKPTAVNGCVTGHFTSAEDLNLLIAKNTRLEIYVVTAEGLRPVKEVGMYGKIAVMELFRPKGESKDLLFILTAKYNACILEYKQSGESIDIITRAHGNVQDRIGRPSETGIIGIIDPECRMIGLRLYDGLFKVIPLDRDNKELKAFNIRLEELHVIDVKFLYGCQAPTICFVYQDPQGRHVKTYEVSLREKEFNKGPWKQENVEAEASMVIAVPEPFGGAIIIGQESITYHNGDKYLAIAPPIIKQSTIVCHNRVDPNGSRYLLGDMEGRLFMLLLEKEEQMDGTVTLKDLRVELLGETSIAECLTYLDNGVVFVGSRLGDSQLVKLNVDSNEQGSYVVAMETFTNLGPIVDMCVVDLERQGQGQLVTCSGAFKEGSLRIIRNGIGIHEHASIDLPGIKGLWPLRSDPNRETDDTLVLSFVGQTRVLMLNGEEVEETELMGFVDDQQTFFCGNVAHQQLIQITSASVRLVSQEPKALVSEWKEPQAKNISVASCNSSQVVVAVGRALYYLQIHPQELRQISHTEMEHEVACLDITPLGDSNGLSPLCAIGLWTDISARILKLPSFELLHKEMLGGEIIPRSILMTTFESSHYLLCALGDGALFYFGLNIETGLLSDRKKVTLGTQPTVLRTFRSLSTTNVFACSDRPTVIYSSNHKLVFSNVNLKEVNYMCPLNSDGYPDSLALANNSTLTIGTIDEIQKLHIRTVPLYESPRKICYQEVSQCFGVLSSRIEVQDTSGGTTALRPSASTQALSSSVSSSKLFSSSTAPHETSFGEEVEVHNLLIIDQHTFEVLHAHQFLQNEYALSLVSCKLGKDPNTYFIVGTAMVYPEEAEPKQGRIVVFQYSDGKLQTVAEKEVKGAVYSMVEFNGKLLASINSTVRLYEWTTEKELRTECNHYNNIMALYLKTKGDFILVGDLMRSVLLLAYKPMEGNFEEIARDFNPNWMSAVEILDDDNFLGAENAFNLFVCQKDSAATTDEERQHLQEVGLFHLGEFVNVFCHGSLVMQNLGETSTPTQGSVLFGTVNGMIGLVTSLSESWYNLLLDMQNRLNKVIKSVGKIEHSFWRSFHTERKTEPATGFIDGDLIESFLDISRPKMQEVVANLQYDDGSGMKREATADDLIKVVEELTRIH
T6 sequence (Q96SW2 whole entry): as the sequence (Q96SW2 whole entry) above
T4 sequence (Q9UKT9 whole entry): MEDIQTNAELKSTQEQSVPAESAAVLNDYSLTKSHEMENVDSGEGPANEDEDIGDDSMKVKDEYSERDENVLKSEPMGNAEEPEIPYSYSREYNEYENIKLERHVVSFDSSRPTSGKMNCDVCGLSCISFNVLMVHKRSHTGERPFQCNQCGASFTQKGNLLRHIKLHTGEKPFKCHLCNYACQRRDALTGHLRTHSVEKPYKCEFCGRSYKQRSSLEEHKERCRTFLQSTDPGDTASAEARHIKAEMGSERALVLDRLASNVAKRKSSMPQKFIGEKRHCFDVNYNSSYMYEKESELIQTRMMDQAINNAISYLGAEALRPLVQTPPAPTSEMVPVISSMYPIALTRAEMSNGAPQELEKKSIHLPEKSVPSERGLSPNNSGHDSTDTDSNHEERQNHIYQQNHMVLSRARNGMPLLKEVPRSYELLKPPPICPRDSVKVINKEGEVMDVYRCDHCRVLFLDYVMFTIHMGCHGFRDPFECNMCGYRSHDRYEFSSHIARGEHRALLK
T4 sequence (Q96SW2 whole entry): as the sequence (Q96SW2 whole entry) above
T4 sequence (Q16531 whole entry partner): as the sequence (Q16531 whole entry partner) above
T1 sequence (P48729 whole entry): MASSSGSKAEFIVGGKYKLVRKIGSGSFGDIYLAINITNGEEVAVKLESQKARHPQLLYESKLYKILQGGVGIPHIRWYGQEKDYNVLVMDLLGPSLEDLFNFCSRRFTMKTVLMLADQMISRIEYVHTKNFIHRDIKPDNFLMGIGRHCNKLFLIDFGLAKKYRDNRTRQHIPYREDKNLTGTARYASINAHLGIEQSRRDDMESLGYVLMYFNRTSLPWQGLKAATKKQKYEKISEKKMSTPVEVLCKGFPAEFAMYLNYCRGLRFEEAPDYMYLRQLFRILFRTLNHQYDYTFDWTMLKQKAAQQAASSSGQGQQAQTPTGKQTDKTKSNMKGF
T1 sequence (Q96SW2 whole entry): as the sequence (Q96SW2 whole entry) above
T1 sequence (Q16531 whole entry partner): as the sequence (Q16531 whole entry partner) above
T3 sequence (Q9UKS7 whole entry): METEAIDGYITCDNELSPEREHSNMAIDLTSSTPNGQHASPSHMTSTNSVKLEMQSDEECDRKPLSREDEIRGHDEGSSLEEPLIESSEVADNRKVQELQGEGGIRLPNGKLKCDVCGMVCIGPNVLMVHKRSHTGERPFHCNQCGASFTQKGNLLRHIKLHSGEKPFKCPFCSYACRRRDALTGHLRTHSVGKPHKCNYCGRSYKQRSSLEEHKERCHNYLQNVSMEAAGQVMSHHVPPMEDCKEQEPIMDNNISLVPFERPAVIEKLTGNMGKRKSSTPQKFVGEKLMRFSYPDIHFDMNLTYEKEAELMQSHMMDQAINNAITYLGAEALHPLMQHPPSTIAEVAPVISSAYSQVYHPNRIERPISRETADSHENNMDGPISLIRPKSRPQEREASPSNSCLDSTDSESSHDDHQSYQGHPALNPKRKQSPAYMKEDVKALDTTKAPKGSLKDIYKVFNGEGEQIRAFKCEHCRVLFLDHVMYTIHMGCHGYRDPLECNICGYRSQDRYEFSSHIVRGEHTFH
T3 sequence (Q96SW2 whole entry): as the sequence (Q96SW2 whole entry) above
T3 sequence (Q16531 whole entry partner): as the sequence (Q16531 whole entry partner) above
T2 sequence (Q13422 whole entry): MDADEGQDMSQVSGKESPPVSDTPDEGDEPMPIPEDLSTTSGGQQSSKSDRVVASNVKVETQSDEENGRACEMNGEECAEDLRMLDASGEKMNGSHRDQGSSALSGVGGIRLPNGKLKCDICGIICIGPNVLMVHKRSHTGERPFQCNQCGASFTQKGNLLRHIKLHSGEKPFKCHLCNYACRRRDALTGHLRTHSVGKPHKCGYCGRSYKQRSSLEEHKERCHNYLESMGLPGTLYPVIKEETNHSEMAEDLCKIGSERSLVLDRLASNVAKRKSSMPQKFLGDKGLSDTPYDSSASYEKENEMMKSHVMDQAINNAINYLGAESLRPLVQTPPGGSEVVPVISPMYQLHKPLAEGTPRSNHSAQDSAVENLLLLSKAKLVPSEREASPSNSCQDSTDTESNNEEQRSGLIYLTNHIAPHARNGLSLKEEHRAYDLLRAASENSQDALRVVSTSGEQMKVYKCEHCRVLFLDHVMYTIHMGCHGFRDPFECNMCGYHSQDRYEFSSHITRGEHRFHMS
T2 sequence (Q96SW2 whole entry): as the sequence (Q96SW2 whole entry) above
T2 sequence (Q16531 whole entry partner): as the sequence (Q16531 whole entry partner) above

| SMILES | CK1α substrate protein remaining % [1, 8] | IKZF 1 substrate protein remaining % [2, 8] | IKZF2 substrate protein remaining % [3, 8] | IKZF3 substrate protein remaining % [4, 8] | Wee1 substrate protein remaining % [5, 8] | GSPT1 substrate protein remaining % [6, 8] | inhibition at 0.5 µM [7] [%] | inhibition at 2 µM [7] [%] | CK1α substrate protein remaining % [1, 9] | IKZF 1 substrate protein remaining % [2, 9] | IKZF2 substrate protein remaining % [3, 9] | IKZF3 substrate protein remaining % [4, 9] | Wee1 substrate protein remaining % [5, 9] | GSPT1 substrate protein remaining % [6, 9] |
| --- | --- | --- | --- | --- | --- | --- | --- | --- | --- | --- | --- | --- | --- | --- |
| O=C1CCC(N2Cc3c(CN4CCN(C(c5ccc(Cl)cc5)c5ccc(Cl)cc5)CC4)cccc3C2=S)C(=O)N1 (stereo not shown) [GT-08203, 3-(4-((4-(bis(4-chlorophenyl)methyl)piperazin-1-yl)methyl)-1-thioxoisoindolin-2-yl)piperidine-2,6-dione] | B (80%< substrate protein remaining %≤ 100%) | B (80%< substrate protein remaining %≤ 100%) | A (0% ≤ substrate protein remaining % ≤ 80%) | A (0% ≤ substrate protein remaining % ≤ 80%) | A (0% ≤ substrate protein remaining % ≤ 80%) | A (0% ≤ substrate protein remaining % ≤ 80%) | 30 to 40 | 53 to 60 | – | – | – | – | – | – |
| Cc1ccc(N2CCN(Cc3cccc4c3CN(C3CCC(=O)NC3=O)C4=S)CC2)cc1 (stereo not shown) [GT-08499, 3-(1-thioxo-4-((4-(p-tolyl)piperazin-1-yl)methyl)isoindolin-2-yl)piperidine-2,6-dione] | B (80%< substrate protein remaining %≤ 100%) | B (80%< substrate protein remaining %≤ 100%) | A (0% ≤ substrate protein remaining % ≤ 80%) | B (80%< substrate protein remaining %≤ 100%) | A (0% ≤ substrate protein remaining % ≤ 80%) | A (0% ≤ substrate protein remaining % ≤ 80%) | 30 to 40 | 53 to 60 | – | – | – | – | – | – |
| O=C1CCC(N2Cc3c(CN4CCN(c5noc6ccncc56)CC4)cccc3C2=S)C(=O)N1 (stereo not shown) [GT-08838, 3-(4-((4-(isoxazolo[4,5-c]pyridin-3-yl)piperazin-1-yl)methyl)-1-thioxoisoindolin-2-yl)piperidine-2,6-dione] | B (80%< substrate protein remaining %≤ 100%) | B (80%< substrate protein remaining %≤ 100%) | B (80%< substrate protein remaining %≤ 100%) | B (80%< substrate protein remaining %≤ 100%) | A (0% ≤ substrate protein remaining % ≤ 80%) | A (0% ≤ substrate protein remaining % ≤ 80%) | 53 to 60 | 80 to 100 | – | – | – | – | – | – |
| O=C1CCC(N2Cc3c(CN4CCC(c5cccs5)CC4)cccc3C2=S)C(=O)N1 (stereo not shown) [GT-08320, 3-(4-((4-(thiophen-2-yl)piperidin-1-yl)methyl)-1-thioxoisoindolin-2-yl)piperidine-2,6-dione] | – | – | – | – | – | – | 40 to 53 | 60 to 80 | B (80%< substrate protein remaining %≤ 100%) | B (80%< substrate protein remaining %≤ 100%) | B (80%< substrate protein remaining %≤ 100%) | A (0% ≤ substrate protein remaining % ≤ 80%) | A (0% ≤ substrate protein remaining % ≤ 80%) | B (80%< substrate protein remaining %≤ 100%) |
| Cc1nc(N2CCN(Cc3cccc4c3CN(C3CCC(=O)NC3=O)C4=S)CC2)c2c3c(sc2n1)CCC3 (stereo not shown) [GT-08926, 3-(4-((4-(2-methyl-6,7-dihydro-5H-cyclopenta[4,5]thieno[2,3-d]pyrimidin-4-yl)piperazin-1-yl)methyl)-1-thioxoisoindolin-2-yl)piperidine-2,6-dione] | – | – | – | – | – | – | 53 to 60 | 80 to 100 | B (80%< substrate protein remaining %≤ 100%) | B (80%< substrate protein remaining %≤ 100%) | B (80%< substrate protein remaining %≤ 100%) | B (80%< substrate protein remaining %≤ 100%) | A (0% ≤ substrate protein remaining % ≤ 80%) | B (80%< substrate protein remaining %≤ 100%) |

Source: patent publication EP4745135A1 (Gluetacs Therapeutics (Shanghai) Co., Ltd., priority 2023, dated 2025)
